Experimental data: the supplement of paper PMC10307832

How the values were obtained:
Experiment in all cases: relative viability (nuclei count vs DMSO), 5 days (fraction); higher = more cells survive
ABC-1 = system: ABC-1
Method in brief: (§1)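 For relative viability, nuclei counts in treated wells were divided by those in vehicle wells. Lung cancer cell lines had been pin-tool dosed in 1536-well plates the day after seeding and cultured for 5 days, then fixed and stained in one step (final 0.05% Triton X-100, 1% formaldehyde, 1 ug/ml Hoechst) and imaged at 4×. Doses were one drug alone or a fixed anchor-drug dose plus five library-drug doses (not always all listed) in √10 steps, and values are duplicate-plate medians.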

COR-L23 = system: COR-L23
Method in brief: as §1

HARA = system: HARA
Method in brief: as §1

SK-LU-1 = system: SK-LU-1
Method in brief: as §1

NCI-H441 = system: NCI-H441
Method in brief: as §1

PC-3 [JPC-3] = system: PC-3 [JPC-3]
Method in brief: as §1

NCI-H3122 = system: NCI-H3122
Method in brief: as §1

EMC-BAC-2 = system: EMC-BAC-2
Method in brief: as §1

LK-2 = system: LK-2
Method in brief: as §1

CAL-12T = system: CAL-12T
Method in brief: as §1

NCI-H1650 = system: NCI-H1650
Method in brief: as §1

NCI-H1437 = conditions: first compound 0.001 µM
Method in brief: as §1

`Cc1cn(-c2cc(NC(=O)c3ccc(C)c(Nc4nccc(-c5cccnc5)n4)c3)cc(C(F)(F)F)c2)cn1` [Nilotinib] + Cc1nc(Nc2ncc(C(=O)Nc3c(C)cccc3Cl)s2)cc(N2CCN(CCO)CC2)n1 [Dasatinib] (partner 0.075 µM) was tested, and the relative viability (ABC-1; first compound 0.001 µM) was 0.557, the relative viability (ABC-1; first compound 0.003162 µM) was 0.637 and the relative viability (ABC-1; first compound 0.01 µM) was 0.643. The relative viability (ABC-1; first compound 0.03162 µM) was 0.554, the relative viability (ABC-1; first compound 0.1 µM) was 0.24 and the relative viability (COR-L23; first compound 0.001 µM) was 0.482. It also gave a relative viability (COR-L23; first compound 0.003162 µM) of 0.501, a relative viability (COR-L23; first compound 0.01 µM) of 0.511 and a relative viability (COR-L23; first compound 0.03162 µM) of 0.265. The relative viability (COR-L23; first compound 0.1 µM) was 0.407, the relative viability (HARA; first compound 0.001 µM) was 0.325 and the relative viability (HARA; first compound 0.003162 µM) was 0.345. It also gave a relative viability (HARA; first compound 0.01 µM) of 0.289, a relative viability (HARA; first compound 0.03162 µM) of 0.178 and a relative viability (HARA; first compound 0.1 µM) of 0.112. The relative viability (SK-LU-1; first compound 0.001 µM) was 0.196, the relative viability (SK-LU-1; first compound 0.003162 µM) was 0.146 and the relative viability (SK-LU-1; first compound 0.01 µM) was 0.21. For the same compound, the relative viability (SK-LU-1; first compound 0.03162 µM) was 0.177, the relative viability (SK-LU-1; first compound 0.1 µM) was 0.177 and the relative viability (NCI-H441; first compound 0.001 µM) was 0.523. For the same compound, the relative viability (NCI-H441; first compound 0.003162 µM) was 0.712, the relative viability (NCI-H441; first compound 0.01 µM) was 0.632 and the relative viability (NCI-H441; first compound 0.03162 µM) was 0.369. The relative viability (NCI-H441; first compound 0.1 µM) was 0.417, the relative viability (PC-3 [JPC-3]; first compound 0.001 µM) was 0.95 and the relative viability (PC-3 [JPC-3]; first compound 0.003162 µM) was 1.09. It also gave a relative viability (PC-3 [JPC-3]; first compound 0.01 µM) of 1.1, a relative viability (PC-3 [JPC-3]; first compound 0.03162 µM) of 0.844 and a relative viability (PC-3 [JPC-3]; first compound 0.1 µM) of 0.528. For the same compound, the relative viability (NCI-H3122; first compound 0.001 µM) was 0.719, the relative viability (NCI-H3122; first compound 0.003162 µM) was 0.91 and the relative viability (NCI-H3122; first compound 0.01 µM) was 0.982. For the same compound, the relative viability (NCI-H3122; first compound 0.03162 µM) was 0.267, the relative viability (NCI-H3122; first compound 0.1 µM) was 0.129 and the relative viability (EMC-BAC-2; first compound 0.001 µM) was 0.308. For the same compound, the relative viability (EMC-BAC-2; first compound 0.003162 µM) was 0.308, the relative viability (EMC-BAC-2; first compound 0.01 µM) was 0.325 and the relative viability (EMC-BAC-2; first compound 0.03162 µM) was 0.27. It also gave a relative viability (EMC-BAC-2; first compound 0.1 µM) of 0.296, a relative viability (LK-2; first compound 0.001 µM) of 0.311 and a relative viability (LK-2; first compound 0.003162 µM) of 0.239. The relative viability (LK-2; first compound 0.01 µM) was 0.294, the relative viability (LK-2; first compound 0.03162 µM) was 0.247 and the relative viability (LK-2; first compound 0.1 µM) was 0.183. The relative viability (CAL-12T; first compound 0.001 µM) was 0.376, the relative viability (CAL-12T; first compound 0.003162 µM) was 0.387 and the relative viability (CAL-12T; first compound 0.01 µM) was 0.456. It also gave a relative viability (CAL-12T; first compound 0.03162 µM) of 0.178, a relative viability (CAL-12T; first compound 0.1 µM) of 0.137 and a relative viability (NCI-H1650; first compound 0.001 µM) of 0.335. It also gave a relative viability (NCI-H1650; first compound 0.003162 µM) of 0.32, a relative viability (NCI-H1650; first compound 0.01 µM) of 0.265 and a relative viability (NCI-H1650; first compound 0.03162 µM) of 0.321. For the same compound, the relative viability (NCI-H1650; first compound 0.1 µM) was 0.21 and the relative viability (NCI-H1437) was 0.366.
